In brackets after ≈: the same amount, converted by molar mass. Where a name gives a salt, the structure may show the parent alone.
Legend:
[1] = target: T1, E. coli TP (Escherichia coli, UniProt P07650); assay: In vitro E. coli thymidine phosphorylase inhibition, spectrophotometric assay at 290 nm; format: biochemical; conditions: for IC50: 300 µM thymidine, pH 7.4, 25 °C; for inhibition at 50 µM: compound at 50 µM, average of three measurements
T1 construct: purchased Sigma Aldrich T2807-1KU
Method: The adopted protocol is a modification of the original method developed by Khan[51]. TP activity and inhibition assays were based on the phosphorolysis of thymidine to thymine, this conversion results in a significant spectrophotometric decrease. At 290 nm and pH 7.4, thymidine has a higher extinction coefficient than thymine (Δε = −480 M^−1 cm^−1). The absorbance at 290 nm was measured every 2 min for 30 min in 96-well plates at 25 °C.
Thymidine was dissolved in buffer (3 mM). […] All experiments were conducted in triplicate.
The method reported by Khan et al.[51] has been adapted to a screening in 96-well plates (200 µL well, UV-Star® 96-well microplate, Greiner). Each well contained 160 µL of 50 mM KH2PO4 buffer (pH 7.4), 0.006 U of E. coli TP (T2807-1KU, Sigma Aldrich), and 20 µL of the tested compound solution. […] The decrease in absorbance due to conversion of thymidine to thymine was followed during 30 min (PowerWave HT Microplate Reader, Biotek) at 25 °C, with one measure every 2 min and a 30 s shaking before each measure.

[2] = target: T1, E. coli TP; assay: Enzyme inhibition kinetic study (Lineweaver-Burk); format: biochemical; conditions: for Km values in the presence of inhibitor / Vmax values in the presence of inhibitor: increasing inhibitor concentration; for Type of TP inhibition: thymidine as substrate, Lineweaver-Burk plots
Method: The percentage of TP inhibition was determined for different concentrations of the inhibitors and thymidine.
Figure 7. […] Results are presented as means ± SD; SD denoted by error bars (experiments carried out in triplicate).
The TP inhibiting activity at differents concentrations of compound 2d (0, 15, 20, 30 µM) and 2p (0, 4, 6, 8 µM) was evaluated in the presence of different concentrations of thymidine ([…]) in KH2PO4 buffer (pH 7.4).

[3] = test system: epidermal carcinoma cells (A431); assay: Cell proliferation assay (MTT), A431; format: cell-based; conditions: Homo sapiens, 72 h, read-out: Growth inhibition, A431
Method: (§1) The inhibitory effect on cell proliferation was assessed using MTT assay[53] after 72 h of treatment through dose-response assays performed in the 100 µM to 0.1 µM concentration range. The results were expressed as percentages of growth inhibition.
(§2) Cell viability was determined on HUVEC and A431 cell lines using 3–(4,5-dimethylthiazol-2-yl)-2,5-diphenyltetrazolium bromide (MTT; Sigma-Aldrich) assay[53] after treatment with compounds 2d and 2p. A total of 5 × 10^3 cells/well (A431 cell line) or 10^4 cells/well (HUVEC cell line) were plated in a 96-well plate and treated, in duplicates, with compounds 2d and 2p at five concentrations (0.1 µM, 1 μM, 10 μM, 50 μM, 100 μM) for 72 h. Absorbance was read at 570 nm using Labsystem Multiskan MS microplate reader. The results were expressed as percentages of growth inhibition compared to positive control cell growth (100%).

[4] = test system: human umbilical vein endothelial cells (HUVEC); assay: Cell proliferation assay (MTT), HUVEC; format: cell-based; conditions: 72 h, read-out: Growth inhibition, HUVEC
Method: as §1, §2

[5] = Solubility in the incubation medium; conditions: for solubility: aqueous buffer, kinetic from dmso stock; for Solubility (in words): incubation medium
[6] = physchem; conditions: aqueous buffer, kinetic from dmso stock
[7] = target: T1, E. coli TP; assay: Phosphate competition study; format: biochemical; conditions: saturating thymidine, phosphate 2–30 mM, compound at its IC50
Method: The synthesised compounds have been designed as TP inhibitors interacting with the thymidine fixation site. […] E. coli TP activity was determined in the presence of a saturating concentration of thymidine (equivalent to three times the value of the Michaelis-Menten constant [km][52]) and variable amounts of phosphate (2–30 mM). Tested compounds have been used at a concentration corresponding to the IC50.
For this study, the reaction mixture was composed of 160 µL of 10 mM Tris buffer (pH 7.4), 150 mM NaCl, 2 mM EDTA, 0.006 U of E. coli TP, different concentrations of KH2PO4 (2, 5, 10 and 30 mM). Compounds were tested at a concentration close to their IC50. The reaction was initiated by the addition of 20 µL of thymidine (3 mM and 10 mM solutions).

[8] = test system: hTP; design: method as in PMID 27783978; conditions: cited from earlier work

T1 sequence (P07650 whole entry): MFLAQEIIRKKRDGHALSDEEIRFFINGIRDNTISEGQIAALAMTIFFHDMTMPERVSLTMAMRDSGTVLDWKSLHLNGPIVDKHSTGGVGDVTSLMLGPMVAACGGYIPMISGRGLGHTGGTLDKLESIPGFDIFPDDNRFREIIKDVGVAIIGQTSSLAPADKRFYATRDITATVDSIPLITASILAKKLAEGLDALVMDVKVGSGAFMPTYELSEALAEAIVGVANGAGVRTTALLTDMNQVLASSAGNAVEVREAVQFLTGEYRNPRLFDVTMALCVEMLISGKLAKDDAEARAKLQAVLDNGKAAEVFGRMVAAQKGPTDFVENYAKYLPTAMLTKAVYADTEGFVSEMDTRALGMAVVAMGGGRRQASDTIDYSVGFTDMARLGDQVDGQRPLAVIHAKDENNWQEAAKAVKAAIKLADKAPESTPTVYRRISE

| Structure (SMILES) | IC50 [1] | inhibition at 50 µM ([1]; 2.5% DMSO) | solubility [5] | Binding to the phosphate site [7] | also measured |
| --- | --- | --- | --- | --- | --- |
| COc1ccc2cc3c(=O)[nH]c(=O)[nH]c3nc2c1 [Compound 2d] | 28 µM | 89% | > 50 µM |  | Km values in the presence of inhibitor [2]: increased; Vmax values in the presence of inhibitor [2]: did not change significantly; Type of TP inhibition [2]: competitive; inhibition at 50 µM ([3]; A-431, 50 µM): 57%; inhibition at 100 µM [4]: 56% |
| O=c1[nH]c(=O)c2cc3cc4c(cc3nc2[nH]1)OCO4 [Compound 2g] |  |  |  |  | inhibition at 15 µM ([1]; compound at 15 µM (maximum solubility), 2.5% DMSO): 0%; solubility [6]: 15 µM (≈ 3.86 µg/mL); Solubility (in words) [5]: sparingly soluble |
| COc1ccc2c(C)c3c(=O)[nH]c(=O)[nH]c3nc2c1 [Compound 2p] | 26 µM | 67% | > 50 µM | did not bind to the phosphate site | Km values in the presence of inhibitor [2]: increased; Vmax values in the presence of inhibitor [2]: did not change significantly; Type of TP inhibition [2]: competitive; inhibition at 100 µM ([3]; A-431, 100 µM): 50%; inhibition at 100 µM [4]: 31% |
| O=C1c2cc3cc4c(cc3nc2C(=O)N1Cc1[nH]c(=O)[nH]c(=O)c1Br)OCO4 [Compound 23b, 2-[(5-Bromo-2,6-dioxo-1,2,3,6-tetrahydropyrimidin-4-yl)methyl]-6,7-methylenedioxy-1H-pyrrolo[3,4-b]quinoline-1,3(2H)-dione] |  | 30% | 50 µM (≈ 22.3 µg/mL) | did not bind to the phosphate site | melting point: 370 to 372 °C (dec.); Solubility (in words) [5]: less soluble |
| O=C1c2cc3c(=O)[nH]c(=O)[nH]c3nc2C(=O)N1Cc1ccccc1 [Compound 28a] | 62 µM | 44% | > 50 µM | did not bind to the phosphate site |  |
| O=C(NCc1cc(=O)[nH]c(=O)[nH]1)c1cc2c(=O)[nH]c(=O)[nH]c2nc1C(=O)NCc1cc(=O)[nH]c(=O)[nH]1 [Compound 30, N^6,N^7-Bis((2,6-dioxo-1,2,3,6-tetrahydropyrimidin-4-yl)methyl)-2,4-dioxo-1,2,3,4-tetrahydropyrido[2,3-d]pyrimidine-6,7-dicarboxamide] | 87 µM | 31% | > 50 µM | did not bind to the phosphate site | melting point: 259 to 261 °C (dec.) |
| N=C1CCCN1Cc1[nH]c(=O)[nH]c(=O)c1Cl [TPI, 5-chloro-6-[1-(2-iminopyrrolidinyl)methyl]uracil hydrochloride] |  |  |  |  | IC50 [8]: 0.035 µM |
